# Data as given in patent publication US10273313B2, “Multimeric mannosides, a process for preparing the same and their uses as a drug” (CENTRE NATIONAL DE LA RECHERCHE SCIENTIFIQUE, priority 2012, dated 2019).
# Read-outs that look alike come from different tables or passages of the source.
# Columns and labels:
# [1] = tested on: AIEC LF82 bacteria in colonic loops of CEABAC10 mice expressing human CEACAM6; experiment: Adhesion assay in colonic loops of CEABAC10 mice; format: in vivo; details: dose of 0.1 μmol, 4 h incubation
# Procedure: E. coli strain LF82 was isolated from a chronic ileal lesion of a patient with Crohn's disease (CD). Bacteria were grown routinely in Luria-Bertani (LB) broth overnight at 37° C.
# The transgenic mouse model CEABAC10 expressing the human CEACAM6 protein is available in the UMR Inserm/Université d'Auvergne 1071 led by Professor Arlette Darfeuille-Michaud at Clermont-Ferrand. This model is particularly suitable to reproduce the abnormal colonization by AIEC bacteria through the interaction with CEACAM6 molecules that were observed abnormally expressed in the ileal mucosa of Crohn's disease patients.
# Three colonic loops were realized in anesthetized CEABAC10 mice. A volume of 100 μl of a bacterial suspension containing 6×10^6 bacteria/mL with or without inhibitory compound was injected into the loops (here, compound 2, example 1) or heptyl-mannose at a concentration of 100 μM). After an incubation period of 4 h, mice were euthanized and each loop was longitudinally opened, extensively washed and homogenized to numerate adherent LF82 bacteria. Bacterial adhesion was expressed as percentages of residual adhesion (100% corresponds to the adhesion in absence of any compound).
# [2] = tested on: type-1 piliated clinical E. coli isolate UTI89; experiment: Haemagglutination inhibition assay (HIA), guinea pig erythrocytes; format: cell-based, Escherichia coli; details: read-out: Minimal inhibitory concentration (MIC) on haemagglutination
# Procedure: Haemagglutination is observed as the red blood cells being held in suspension through the formation of a space-filling cross-linked network with the fimbriated bacteria.
# The UIT89 clinical isolate was grown statically 37° C. for 48 hours in LB medium and analysed for haemagglutination of guinea pig red blood cells. Both bacteria and red blood cells (RBCs) were washed 3 times in ice-cold PBS (17 mM K/NaH2PO4, 150 mM NaCl). PBS was used for all dilutions. 96-well round-bottom microtiter plates were used for the dilutions. The titer for agglutination was determined in a 2-fold dilution series in PBS of the bacteria in a volume of 25 μL. Well 1 is a negative control without bacteria but 25 μL PBS. 25 μL PBS and 50 μL 5% RBCs were added to a final 100 μL volume. Upon 1 hour at 4° C., the titer was determined as the lowest concentration of bacteria that led to haemagglutination.
# A bacterial concentration of twice the determined haemagglutination titer was kept constant in the haemagglutination inhibition assays. First, a 2-fold dilution series of the inhibitory compounds was performed in 25 μL PBS. Instead, in well 1 only 25 μL PBS was added as a negative control. 25 μL of the bacterial solution and 50 μl of 5% red blood cells were added to reach a final volume of 100 μL.
# [3] = target: T1, monovalent lectin domain of FimH (Escherichia coli, UniProt P08191); format: binding; details: for Kd / Molar ratio n meas / ΔG° / ΔH° / ΔS°: direct titration; for Kd: read-out: Kd
# T1 construct: with the monovalent lectin domain of FimH were measured using isothermal calorimetry (ITC)
# [4] = tested on: bladder cell line 5637; experiment: Anti-adhesives for bacterial bladder cell binding; format: cell-based; details: ten-fold dilution series
# Procedure: The anti-adhesive capacities of the HM-derivatized cyclodextrins 1-4 were tested in vitro on the bladder cell line 5637, in a procedure analogous as previously described (Wellens, A. et al., PLoS ONE 3: e2040 (2008)). The CD conjugates 1-4 were diluted in a ten-fold series. The minimum inhibitory concentrations (MIC) indicate the concentrations of sugars at which we see some inhibition of binding of FimH to the bladder cells, they do however not indicate complete inhibition. MIC values for the CD-conjugates 1-4 followed a similar trend as the inhibitory concentrations recorded in HIA.
# The anti-adhesive capacities of the n-heptyl α-D-mannoside-derivatized cyclodextrins 1-4 were tested in vitro on the bladder cell line 5637, in a procedure analogous to as described in (Wellens, A. et al., PLoS ONE 3: e2040 (2008)). The ligands have been diluted 10-fold and this is also the resolution limit of these tests.
# [5] = tested on: E. coli strain UTI89 in the bladder of C3H/HeN mice; experiment: In vivo inhibition in the murine cystitis model (instillation with UTI89)
# Procedure: In vivo inhibition was evaluated by instilling 1-4 together with the UTI89 strain via a catheter in the bladder of C3H/HeN mice. […] A group of ten animals was used for each concentration of antagonists. […] The animals were sacrificed at a 6 h post infection time.
# A murine model of urinary tract infection was used to test the ability of the compounds to inhibit the colonization of UTI89 in the bladder [Hung C. S.; Dodson, K. W., Hultgren S. J. Nat. Protoc. 2009, 4, 1230-1243 and Wellens A.; Garofalo C.; Nguyen H.; Van Gerven N.; Slättegård R.; Hernalsteens, J.-P.; Wyns, L.; Oscarson, S.; De Greve H.; Hultgren S. J.; Bouckaert, J. PLoS ONE 2008, 3, e2040]. The solution with high concentration of compounds was added to the resuspension of UTI89 before given to the mice. The eight-week old Female C3H/HeN mice (Harlan, Horst, The Netherlands) were anesthetized and infected via transurethral catheterization of 10^7 CFU UTI89 in solution in PBS, or in PBS with the compound in the mentioned concentration. The mice were sacrificed at 24 hours post infection and the bladders were harvested, homogenized and resuspended in PBS. The serial dilutions were spot on LB medium agar plates. The bacterial load was determined by counting the CFU recovered from the bladder. The animal experiments were approved by the Ethical Committer for Animal Experiments of Vrije Universiteit Brussel and complied with all relevant national legislation and institutional policies. The Mann-Whitney test was applied for the comparison of the data obtained from the untreated group and inhibition group in GraphPad Prism version 5.1 and two tailed P value were shown (GraphPad software).
# A limited number of papers described the in vivo efficiency of anti-adhesive mannosides to treat UTIs.
# [6] = tested on: AIEC LF82 strain adhesion to T84 intestinal epithelial cells; experiment: Adhesion assay on T84 cells, cells incubated 1 h with mannoside prior infection (Example 21.1); format: cell-based, Escherichia coli
# Procedure: (§1) E. coli strain LF82 was isolated from a chronic ileal lesion of a patient with Crohn's disease (CD). Bacteria were grown routinely in Luria-Bertani (LB) broth overnight at 37° C. Intestinal epithelial cells T84 derived from colonic adenocarcinoma were maintained in an atmosphere containing 5% CO2 at 37° C. in DMEM/F12 (50/50) medium supplemented with 10% (v/v) heat-inactivated fetal calf serum (FCS), 1% L-glutamine, 100 000 U·l^−1 penicillin, 100 mg·l^−1 streptomycin, 25 μg·l^−1 amphotericin B.
# T84 cells were seeded in 48-well tissue culture plates with 1.5×10^5 cells per well and grown for 48 h. Cells were incubated 1 h prior infection with each mannoside at a final concentration of 100; 10; 1 or 0.1 μM in complete medium without antibiotics, containing heat inactivated fetal calf serum (FCS) and were next infected with AIEC LF82 strain at a multiplicity of infection (MOI) of 10 bacteria per cell. After a 3 h incubation period at 37° C., the monolayers were washed in phosphate-buffered saline (PBS; pH 7.2). The epithelial cells were then lysed with 1% Triton X-100 in deionized water. Samples were diluted and plated onto Luria Bertani agar plates to determine the number of cfu recovered from the lysed monolayers.
# Results were expressed in percentage of residual adhesion, considering adhesion level of AIEC LF82 without mannoside treatment as 100%.
# [7] = tested on: AIEC LF82 bacteria adhesion to T84 intestinal epithelial cells; experiment: Adhesion assay on T84 cells, pre-, co- and post-incubation protocols (Example 21.2); format: cell-based, Escherichia coli
# Procedure: as §1
# T84 were seeded in 48-well plates at a concentration of 1.5×10^5 cells per well and grown for 48 h. AIEC LF82 bacteria were incubated 1 h with each mannoside prior the cell infection (pre-incubation protocol) or they were added simultaneously onto the cells (co-incubation protocol) in complete medium without antibiotics, containing heat inactivated fetal calf serum (FCS). Heptyl-mannose or compound 2 (example 1) were tested at a dose of 100; 10; 1 or 0.1 μM. D-D-mannose was tested at a dose of 10 000; 1 000; 100 or 10 μM and compound 1 (example 2bis) was tested at a concentration of 500; 100; 10 or 1 μM. Cells were infected with AIEC LF82 bacteria at a multiplicity of infection (MOI) of 10 bacteria per cell for 3 h at 37° C. For the post-incubation protocol, mannosides were incubated with cells for 3 h after bacterial infection. A washing step was realized before this post-incubation to eliminate non-adherent bacteria. Monolayers were washed in phosphate-buffered saline (PBS; pH 7.2) and cells were then lysed with 1% Triton X-100 in deionized water. Samples were diluted and plated onto Luria Bertani agar plates to determine the number of colony-forming units (CFU) recovered from the lysed monolayers. Results were expressed as percentages of residual adhesion, considering adhesion level of AIEC LF82 without mannoside treatment as 100%.
# [8] = excluding spiky heat signals (2)
# T1 sequence (P08191 22-179): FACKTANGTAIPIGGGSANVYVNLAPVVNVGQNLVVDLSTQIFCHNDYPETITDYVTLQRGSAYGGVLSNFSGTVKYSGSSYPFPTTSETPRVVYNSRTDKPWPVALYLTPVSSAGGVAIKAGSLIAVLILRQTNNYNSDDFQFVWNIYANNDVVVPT
compound,measurement,setting,value
"CCCCCCCO[C@H]1O[C@H](CO)[C@@H](O)[C@H](O)[C@@H]1O [heptyl-mannoside, Heptyl α-D-mannoside, reference compound]",Bacterial adhesion in colonic loops compared with no inhibitor,[1],did not decrease significantly
OC[C@H]1O[C@H](OCCCCCCCOCc2cn(C[C@H]3O[C@@H]4O[C@H]5[C@H](O)[C@@H](O)[C@@H](O[C@H]6[C@H](O)[C@@H](O)[C@@H](O[C@H]7[C@H](O)[C@@H](O)[C@@H](O[C@H]8[C@H](O)[C@@H](O)[C@@H](O[C@H]9[C@H](O)[C@@H](O)[C@@H](O[C@H]%10[C@H](O)[C@@H](O)[C@@H](O[C@H]3[C@H](O)[C@H]4O)O[C@@H]%10CO)O[C@@H]9CO)O[C@@H]8CO)O[C@@H]7CO)O[C@@H]6CO)O[C@@H]5CO)nn2)[C@@H](O)[C@@H](O)[C@@H]1O [Compound 1],MIC,[2]; UTI89 1.2 10^9 CFU/ml,>200 µM
same,MIC,[2]; UTI89 1.4 10^8 CFU/ml,100 µM
same,MIC,[2]; UTI89 7 10^7 CFU/ml,63 µM
same,Affinity of FimH for the ligand (in words),[3]; ITC,micromolar range
same,Kd,[3]; data processed to exclude spiky heat signals (2),625 nM
same,Kd,[3]; data processed to include the whole binding event (1),1640 nM
same,Molar ratio n meas,[3]; [8],0.36
same,ΔG°,[3]; [8],-8.4 kcal/mol
same,ΔH°,[3]; [8],-5.6 kcal/mol
same,ΔS°,[3]; [8],9.7 cal/mol/deg
same,Molar ratio n meas,[3]; whole binding event (1),0.35
same,ΔG°,[3]; whole binding event (1),-7.8 kcal/mol
same,ΔH°,[3]; whole binding event (1),-7.2 kcal/mol
same,ΔS°,[3]; whole binding event (1),2.2 cal/mol/deg
same,"MIC, anti-adhesive potency on bladder cell line 5637",[4],>400000 nM
same,Inhibition efficiency at decreased concentration,[5]; 0.1 mM,important drop in the inhibition efficiency
same,Reduction of the level of infection,[5]; instillation of 1 mM with UTI89,10 fold
same,Concentration reaching around 75% of binding inhibition (25% line),[6],500 µM
same,Bacteria adherent to intestinal epithelial cells eliminated,"[7]; post-incubation, 500 μM",≤ 40%
same,Concentration leading to decreased adhesion levels of at least 50%,[7]; pre-incubation assay,500 µM
